Columns and labels:
Format in all cases: biochemical
[1] = target: T1, egg albumin (Gallus gallus, UniProt P01012); experiment: Inhibition of protein denaturation method; conditions: read-out: Inhibition of protein denaturation (%)
T1 sequence (P01012 2-386): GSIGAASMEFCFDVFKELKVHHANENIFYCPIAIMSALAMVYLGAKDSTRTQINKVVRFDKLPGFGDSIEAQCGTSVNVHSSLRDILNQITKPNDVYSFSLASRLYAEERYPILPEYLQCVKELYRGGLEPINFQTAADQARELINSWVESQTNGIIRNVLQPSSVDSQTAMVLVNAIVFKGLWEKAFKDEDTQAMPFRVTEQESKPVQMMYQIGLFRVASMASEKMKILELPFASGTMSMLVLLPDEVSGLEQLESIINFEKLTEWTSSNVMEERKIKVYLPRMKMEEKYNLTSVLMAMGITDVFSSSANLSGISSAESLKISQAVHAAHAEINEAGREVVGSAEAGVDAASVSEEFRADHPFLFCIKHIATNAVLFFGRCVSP

[2] = target: T2, COX-1 (Ovis aries, UniProt P05979); experiment: In vitro COX inhibitory assay; conditions: for Inhibition of COX-1 in comparison to indomethacin: result in words; for inhibition at 50 µg/mL / inhibition at 100 µg/mL / inhibition at 150 µg/mL: read-out: Inhibition of COX-1 (%)
T2 sequence (P05979 25-600): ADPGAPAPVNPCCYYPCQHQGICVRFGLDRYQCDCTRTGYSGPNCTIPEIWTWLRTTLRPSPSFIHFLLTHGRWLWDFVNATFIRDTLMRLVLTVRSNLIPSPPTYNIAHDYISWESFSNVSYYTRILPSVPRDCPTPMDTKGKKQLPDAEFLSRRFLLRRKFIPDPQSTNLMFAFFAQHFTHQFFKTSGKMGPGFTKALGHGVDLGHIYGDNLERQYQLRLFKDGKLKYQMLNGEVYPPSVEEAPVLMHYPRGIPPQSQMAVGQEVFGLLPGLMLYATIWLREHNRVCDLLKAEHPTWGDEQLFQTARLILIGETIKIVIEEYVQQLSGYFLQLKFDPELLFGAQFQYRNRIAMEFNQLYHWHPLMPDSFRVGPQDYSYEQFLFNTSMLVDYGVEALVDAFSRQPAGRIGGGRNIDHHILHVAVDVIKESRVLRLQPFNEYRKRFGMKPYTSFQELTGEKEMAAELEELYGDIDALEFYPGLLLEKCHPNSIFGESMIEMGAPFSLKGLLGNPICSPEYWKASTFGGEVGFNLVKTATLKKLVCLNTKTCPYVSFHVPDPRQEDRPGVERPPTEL

[3] = target: T3, COX-2 (Homo sapiens, UniProt P35354); experiment: In vitro COX inhibitory assay; conditions: for Inhibition of COX-2 in comparison to indomethacin: result in words; for Selectivity index: COX-1/COX-2 selectivity index; for inhibition at 50 µg/mL / inhibition at 100 µg/mL / inhibition at 150 µg/mL: read-out: Inhibition of COX-2 (%)
T3 sequence (P35354 18-604): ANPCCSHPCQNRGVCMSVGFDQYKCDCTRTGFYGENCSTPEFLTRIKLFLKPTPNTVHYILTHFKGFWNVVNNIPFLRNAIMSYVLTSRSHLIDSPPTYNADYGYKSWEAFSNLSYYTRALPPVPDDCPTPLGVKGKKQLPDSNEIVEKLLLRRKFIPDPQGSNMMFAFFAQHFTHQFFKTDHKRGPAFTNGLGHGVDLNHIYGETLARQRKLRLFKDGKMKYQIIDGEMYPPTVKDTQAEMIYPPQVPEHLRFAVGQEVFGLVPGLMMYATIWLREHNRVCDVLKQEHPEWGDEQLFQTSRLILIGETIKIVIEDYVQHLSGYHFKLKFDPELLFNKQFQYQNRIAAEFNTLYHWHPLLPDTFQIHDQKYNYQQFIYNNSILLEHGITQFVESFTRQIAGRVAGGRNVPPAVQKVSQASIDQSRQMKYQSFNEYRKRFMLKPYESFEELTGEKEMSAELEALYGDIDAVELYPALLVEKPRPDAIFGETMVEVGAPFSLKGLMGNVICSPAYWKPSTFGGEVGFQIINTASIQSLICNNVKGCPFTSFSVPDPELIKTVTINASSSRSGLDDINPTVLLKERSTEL

| Structure (SMILES) | inhibition at 50 µg/mL [1] | inhibition at 100 µg/mL [1] | inhibition at 200 µg/mL [1] | inhibition at 300 µg/mL [1] | Inhibition of COX-1 in comparison to indomethacin [2] | Inhibition of COX-2 in comparison to indomethacin [3] | IC50 [2] | inhibition at 50 µg/mL [2] | inhibition at 100 µg/mL [2] | inhibition at 150 µg/mL [2] | IC50 [3] | Selectivity index [3] | inhibition at 50 µg/mL [3] | inhibition at 100 µg/mL [3] | inhibition at 150 µg/mL [3] |
| --- | --- | --- | --- | --- | --- | --- | --- | --- | --- | --- | --- | --- | --- | --- | --- |
| NC1=NC(/C=C/c2ccccc2)n2nc(C(=O)Nc3ccc(S(N)(=O)=O)cc3)nc2N1 (centres unmarked) [Compound 6, (E)-5-Amino-7-styryl-N-(4-sulfamoylphenyl)-4,7-dihydro-[1,2,4]-triazolo[1,5-a][1,3,5]triazine-2-carboxamide] | 53.7% | 58.4% | 67.4% | 72.1% | less inhibition | less inhibition | – | – | – | – | – | – | – | – | – |
| CN(C)c1ccc(C2N=C(N)Nc3nc(C(=O)Nc4ccc(S(N)(=O)=O)cc4)nn32)cc1 (centres unmarked) [Compound 12, 5-Amino-7-(4-(dimethylamino)phenyl)-N-(4-sulfamoylphenyl)-4,7-dihydro-[1,2,4]-triazolo[1,5-a][1,3,5]triazine-2-carboxamide] | 55.8% | 60.5% | 66.3% | 74.2% | – | – | 192 µM | 28.64 ± 0.04% | 53.24 ± 0.03% | 70.68 ± 0.04% | 92.9 µM | 2.06 | 59.1 ± 0.01% | 80.98 ± 0.02% | 98.4 ± 0.02% |
| NC1=NC(c2ccco2)n2nc(C(=O)Nc3ccc(S(N)(=O)=O)cc3)nc2N1 (centres unmarked) [Compound 4, 5-Amino-7-(furan-2-yl)-N-(4-sulfamoylphenyl)-4,7-dihydro-[1,2,4]-triazolo[1,5-a][1,3,5]triazine-2-carboxamide] | 90.3% | 95% | 99.2% | 91.3% | – | – | 99.5 µM | 62.43 ± 0.01% | 80.64 ± 0.01% | 90.02 ± 0.02% | 69 µM | 1.44 | 90.03 ± 0.02% | 95.11 ± 0.01% | 98.92 ± 0.02% |
| NC1=NC(C2N=C(N)Nc3nc(C(=O)Nc4ccc(S(N)(=O)=O)cc4)nn32)n2nc(C(=O)Nc3ccc(S(N)(=O)=O)cc3)nc2N1 (centres unmarked) [Compound 7, 5,5′-Diamino-N2,N2′-bis(4-sulfamoylphenyl)-4,4′,7,7′-tetrahydro-[7,7′-bi[1,2,4]triazolo[1,5-a][1,3,5]triazine]-2,2′-dicarboxamide] | 54.7% | 59.5% | 65.3% | 73.2% | less inhibition | less inhibition | – | – | – | – | – | – | – | – | – |

The next lines start with the values.

| inhibition at 50 µg/mL [1] | inhibition at 100 µg/mL [1] | inhibition at 200 µg/mL [1] | inhibition at 300 µg/mL [1] | Inhibition of COX-1 in comparison to indomethacin [2] | Inhibition of COX-2 in comparison to indomethacin [3] | IC50 [2] | inhibition at 50 µg/mL [2] | inhibition at 100 µg/mL [2] | inhibition at 150 µg/mL [2] | IC50 [3] | Selectivity index [3] | inhibition at 50 µg/mL [3] | inhibition at 100 µg/mL [3] | inhibition at 150 µg/mL [3] | Structure (SMILES) |
| --- | --- | --- | --- | --- | --- | --- | --- | --- | --- | --- | --- | --- | --- | --- | --- |
| 55% | 59.7% | 65.5% | 73.4% | less inhibition | less inhibition | – | – | – | – | – | – | – | – | – | NC1=NC(c2cccc3ccccc23)n2nc(C(=O)Nc3ccc(S(N)(=O)=O)cc3)nc2N1 (centres unmarked) [Compound 10, 5-Amino-7-(naphthalen-1-yl)-N-(4-sulfamoylphenyl)-4,7-dihydro-[1,2,4]-triazolo[1,5-a][1,3,5]triazine-2-carboxamide] |
| 55% | 59.8% | 65.7% | 73.6% | less inhibition | less inhibition | – | – | – | – | – | – | – | – | – | NC1=NC(c2cccc(O)c2)n2nc(C(=O)Nc3ccc(S(N)(=O)=O)cc3)nc2N1 (centres unmarked) [Compound 13, 5-Amino-7-(3-hydroxyphenyl)-N-(4-sulfamoylphenyl)-4,7-dihydro-[1,2,4]-triazolo[1,5-a][1,3,5]triazine-2-carboxamide] |
| 59.5% | 64.2% | 70% | 77.9% | – | – | 186 µM | 30.12 ± 0.02% | 55.41 ± 0.05% | 71.23 ± 0.05% | 89.3 µM | 2.07 | 62.64 ± 0.01% | 64.78 ± 0.01% | 71.61 ± 0.01% | NC1=NC(c2ccccc2Cl)n2nc(C(=O)Nc3ccc(S(N)(=O)=O)cc3)nc2N1 (centres unmarked) [Compound 8, 5-Amino-7-(2-chlorophenyl)-N-(4-sulfamoylphenyl)-4,7-dihydro-[1,2,4]-triazolo[1,5-a][1,3,5]triazine-2-carboxamide] |
| 51% | 55.8% | 61.6% | 69.5% | less inhibition | less inhibition | – | – | – | – | – | – | – | – | – | COc1ccc(C2N=C(N)Nc3nc(C(=O)Nc4ccc(S(N)(=O)=O)cc4)nn32)cc1 (centres unmarked) [Compound 9, 5-Amino-7-(4-methoxyphenyl)-N-(4-sulfamoylphenyl)-4,7-dihydro-[1,2,4]-triazolo[1,5-a][1,3,5]triazine-2-carboxamide] |
| 83.4% | 88.2% | 93.9% | 98.2% | – | – | 141 µM | 41.28 ± 0.04% | 63.43 ± 0.04% | 80.12 ± 0.03% | 96.7 µM | 1.46 | 60.3 ± 0.05% | 81.99 ± 0.01% | 98.97 ± 0.06% | NC1=NC(c2ccccc2O)n2nc(C(=O)Nc3ccc(S(N)(=O)=O)cc3)nc2N1 (centres unmarked) [Compound 11, 5-Amino-7-(2-hydroxyphenyl)-N-(4-sulfamoylphenyl)-4,7-dihydro-[1,2,4]-triazolo[1,5-a][1,3,5]triazine-2-carboxamide] |
| 59.7% | 64.5% | 70.3% | 78.2% | – | – | 180 µM | 32.51 ± 0.03% | 56.64 ± 0.01% | 74.32 ± 0.03% | 97.7 µM | 1.84 | 60.01 ± 0.05% | 67.25 ± 0.02% | 75.31 ± 0.01% | Cc1ccccc1C1N=C(N)Nc2nc(C(=O)Nc3ccc(S(N)(=O)=O)cc3)nn21 (centres unmarked) [Compound 5, 5-Amino-N-(4-sulfamoylphenyl)-7-(o-tolyl)-4,7-dihydro-[1,2,4]-triazolo[1,5-a][1,3,5]triazine-2-carboxamide] |

— paper PMC11146149 (RSC Advances, 2024)
